In one data set the test system is intact SS cells. Briefly: Antisickling study (RBC morphology) under hypoxia with homozygous SS blood. Format: cell-based, human. The note with it: SS blood hematocrit 20%, 2.5% oxygen, 37° C., 2 hr. On the procedure: (§1) In vitro Hemoglobin Modification, Oxygen Equilibrium and Antisickling Studies Using Human homozygous Sickle cell (SS) Blood
(§2) Materials and General Procedure: Leftover blood samples from patients with homozygous SS were obtained and utilized, based on an approved IRB protocol at the Children's Hospital of Philadelphia, with informed consent.
(§3) Following, the suspensions were incubated under hypoxic condition (2.5% oxygen) at 37° C. for 2 hr. Aliquot samples were fixed with 2% glutaraldehyde solution without exposure to air, and then subjected to microscopic morphological analysis. The residual samples were washed in phosphate-buffered saline, and hemolyzed in hypotonic lysis buffer for the Hb oxygen equilibrium and Hb adduct experiments. […] Another aliquot from the lysate was also subjected to Hb adduct formation study using cation-exchange HPLC (Hitachi D-7000 Series, Hitachi Instruments, Inc., San Jose, Calif.) with a weak cation-exchange column (Poly CAT A: 30 mm×4.6 mm, Poly LC, Inc., Columbia, Md.). To determine the binding of the MMA compounds to either α- or β-globin chains, the hemolysates were subjected to reversed-phase (RP) HPLC on a Hitachi D-7000 HSM Series, using a Jupiter 5 μm C-4 50×4.6 mm column, (Phenomenex®, Torrence, Calif.) and a gradient from 20% to 60% acetonitrile in 0.3% trifluoroacetic acid in 15 minutes, with UV detection at 215 nm.

Data set [1] addresses T1, Hb (Homo sapiens, UniProt P68871+P69905, E7V).
T1 construct: Leftover blood samples from patients with homozygous SS were obtained and utilized; from tissue; host or cells: blood (red blood cells) of patients with homozygous SS
Briefly: Hb oxygen equilibrium study (P50 shift, Hemox Analyzer) on lysate of treated SS cells. The note with it: intact SS cells, read-out: increase in Hb oxygen affinity (ΔP50); for percent P50 decrease (increase in Hb oxygen affinity) at 2000 µM: 2 mM compound; for percent P50 decrease (increase in Hb oxygen affinity) at 5000 µM: 5 mM compound. In kind it is cell-based.
Excerpt: as §1, §2
as §3, with “Experimental Procedure: The MMA series of compounds (MMA-202, MMA-204, and MMA-405) and the positive control vanillin were studied for their abilities to inhibit hypoxia-induced RBC sickling (RBC morphology study), increase Hb oxygen, and/or modify Hb (adduct formation) as previously published.^31,33 Briefly, homozygous SS blood (hematocrit: 20%) suspensions were incubated under air in the absence or presence of 2 and/or 5 mM concentration of test compounds at 37° C. for 1 hr. Following,” for “Following,”

The target in data set [2] is T1, Hb. As to the kind of experiment: Hb adduct formation study by cation-exchange HPLC after incubation with intact SS cells. The following applies: 2 mM and/or 5 mM. In kind it is cell-based. On the procedure: Experimental Procedure: The MMA series of compounds (MMA-202, MMA-204, and MMA-405) and the positive control vanillin were studied for their abilities to inhibit hypoxia-induced RBC sickling (RBC morphology study), increase Hb oxygen, and/or modify Hb (adduct formation) as previously published.^31,33 Briefly, homozygous SS blood (hematocrit: 20%) suspensions were incubated under air in the absence or presence of 2 and/or 5 mM concentration of test compounds at 37° C. for 1 hr. Following, the suspensions were incubated under hypoxic condition (2.5% oxygen) at 37° C. for 2 hr. Aliquot samples were fixed with 2% glutaraldehyde solution without exposure to air, and then subjected to microscopic morphological analysis. The residual samples were washed in phosphate-buffered saline, and hemolyzed in hypotonic lysis buffer for the Hb oxygen equilibrium and Hb adduct experiments. […] Another aliquot from the lysate was also subjected to Hb adduct formation study using cation-exchange HPLC (Hitachi D-7000 Series, Hitachi Instruments, Inc., San Jose, Calif.) with a weak cation-exchange column (Poly CAT A: 30 mm×4.6 mm, Poly LC, Inc., Columbia, Md.). […]

The next data set concerns the target T2, α- or β-globin chains (Homo sapiens, UniProt P68871+P69905, E7V).
T2 construct: Leftover blood samples from patients with homozygous SS were obtained and utilized; from tissue; host or cells: blood (red blood cells) of patients with homozygous SS
As to the kind of experiment: Reversed-phase HPLC of hemolysates for binding to α- or β-globin chains. In kind it is cell-based. The following applies: reverse-phase HPLC; 2 mM and/or 5 mM; intact SS cells. On the procedure:
Experimental Procedure: The MMA series of compounds (MMA-202, MMA-204, and MMA-405) and the positive control vanillin were studied for their abilities to inhibit hypoxia-induced RBC sickling (RBC morphology study), increase Hb oxygen, and/or modify Hb (adduct formation) as previously published.^31,33 Briefly, homozygous SS blood (hematocrit: 20%) suspensions were incubated under air in the absence or presence of 2 and/or 5 mM concentration of test compounds at 37° C. for 1 hr. Following, the suspensions were incubated under hypoxic condition (2.5% oxygen) at 37° C. for 2 hr. Aliquot samples were fixed with 2% glutaraldehyde solution without exposure to air, and then subjected to microscopic morphological analysis. The residual samples were washed in phosphate-buffered saline, and hemolyzed in hypotonic lysis buffer for the Hb oxygen equilibrium and Hb adduct experiments. […] Another aliquot from the lysate was also subjected to Hb adduct formation study using cation-exchange HPLC (Hitachi D-7000 Series, Hitachi Instruments, Inc., San Jose, Calif.) with a weak cation-exchange column (Poly CAT A: 30 mm×4.6 mm, Poly LC, Inc., Columbia, Md.). To determine the binding of the MMA compounds to either α- or β-globin chains, the hemolysates were subjected to reversed-phase (RP) HPLC on a Hitachi D-7000 HSM Series, using a Jupiter 5 μm C-4 50×4.6 mm column, (Phenomenex®, Torrence, Calif.) and a gradient from 20% to 60% acetonitrile in 0.3% trifluoroacetic acid in 15 minutes, with UV detection at 215 nm.

Data set [3] has as its target Hb (Homo sapiens, UniProt P68871+P69905). As to the kind of experiment: In vitro time-dependent Hb oxygen equilibrium study using normal whole blood. The following applies: 2 mM; normal whole blood 30% hct; 37° C.; 1, 4 and 24 hr.
For data set [4] the following is noted: in-vivo; aldehyde protected by L-cysteine; cited from earlier work.

SMILES strings stand for the structures.

What is called melting point is the temperature of the solid-liquid transition.

Consider `COC(=O)C(=O)c1ccc(OC)cc1` [MMA-201, methyl 2-(4-methoxyphenyl)-2-oxoacetate], for which the melting point came to 49 °C.

For the compound `C=CC(=O)c1ccc(OC)cc1` [MMA-202, 1-(4-methoxyphenyl)prop-2-en-1-one], the RBC sickling in the data set with intact SS cells (1 mM compound) turned out to be 48%; in the data set on intact SS cells (2 mM compound) it was 28%; with intact SS cells (5 mM compound), 15%. The percent P50 decrease (increase in Hb oxygen affinity) at 2000 µM at Hb [1] came to 13%. Besides, the percent P50 decrease (increase in Hb oxygen affinity) at 5000 µM on Hb [1] is 51%. Besides, the “Hb modification (adduct formation)” value at Hb [2] is “significant Hb modification”. Also, the globin chain bound result on α- or β-globin chains was “bind to both the α-chain and β-chain”. For the same compound, the “time course of Hb oxygen affinity activity (% P50 shift) over 24 hr” value on Hb [3] was “sustained throughout the 24 hr experiment”.

On to `COc1ccc(C(=O)C(N)=O)cc1` [MMA-203, 2-(4-methoxyphenyl)-2-oxoacetamide], for which the melting point worked out at 146 °C.

Compound `C#CC(=O)c1ccc(OC)cc1` [MMA-204, 1-(4-methoxyphenyl)prop-2-yn-1-one] showed an RBC sickling in the data set on intact SS cells (2 mM compound) of 57%. In addition, the RBC sickling with intact SS cells (5 mM compound) is reported as 44%. Further, at Hb [1], the percent P50 decrease (increase in Hb oxygen affinity) at 2000 µM was determined as 29% and the percent P50 decrease (increase in Hb oxygen affinity) at 5000 µM worked out at 62%. On α- or β-globin chains, the globin chain bound entry is “bind exclusively with the β-chain”.

In the case of `C=CC(=O)c1ccc(OC2CCCCO2)cc1` (centres unmarked) [MMA-205, 1-(4-((tetrahydro-2H-pyran-2-yl)oxy)phenyl)prop-2-en-1-one], the RBC sickling in the data set with intact SS cells (2 mM compound) turned out to be 46%; in the data set on intact SS cells (5 mM compound), 27%. Also, the percent P50 decrease (increase in Hb oxygen affinity) at 2000 µM on Hb [1] amounted to 21%. Moreover, the percent P50 decrease (increase in Hb oxygen affinity) at 5000 µM on Hb [1] is 39%. For the same compound, on Hb [2], the “Hb modification (adduct formation)” value is “significant Hb modification”. On α- or β-globin chains, the globin chain bound entry is “bind exclusively with the β-chain”.

Consider `COc1cc(C2NC(C(=O)O)CS2)ccc1O` (centres unmarked) [thiazolidine complex of Vanillin], for which, in data set [4], the “extension of Vanillin half-life” value is given as 2 fold.

Turning to `COc1cc(C=O)ccc1O` [vanillin], the RBC sickling in the data set on intact SS cells (2 mM compound) was found to be 57%. The compound further showed an RBC sickling with intact SS cells (5 mM compound) of 36%. Further, at Hb [1], the percent P50 decrease (increase in Hb oxygen affinity) at 2000 µM turned out to be 12% and the percent P50 decrease (increase in Hb oxygen affinity) at 5000 µM was 27%.

The values above are taken from US11104632B1, “Metabolically stable vanillin derivatives for the treatment of hypoxia” (King Abdulaziz University, priority 2020, dated 2021).
